From patent publication US20100210649A1, “PYRIDAZINONES AND FURAN-CONTAINING COMPOUNDS” (Sloan-Kettering Institute for Cancer Research, priority 2006, published 2010)
Read-outs that look alike come from different tables or passages of the source. One block for each compound: values may come before it.

Legend:
[1] = tested on: H827; experiment: Non Small Cell Lung Cancer proliferation assay (Alamar Blue reduction), H827; format: cell-based
Procedure: […] are grown and maintained in Corning 175 cm2 flasks in RPMI 1640 media supplemented with 10% FBS, 1% antibiotic solution, 1% additional glutamine and pyruvate. These cells have a doubling time of 1-2 days. All cell types are adherent and grow in colonies. The cells should be kept at a density between 50,000 cells/mL -500,000 cells/mL to provide for optimum growth and adequate nutrition. The cell line should be maintained at 37° C. in a humidified atmosphere with 5% CO2 in a sterile cell culture incubator.
Non Small Cell Lung Cancer Proliferation Assay. To perform the assay, the Non Small Cell Lung Cancer lines are diluted in media and plated into 384 well microplates at a final density of 250 cells in […]. To ensure consistency and minimal pipetting error, the cells are plated using the Multidrop 384 with the following settings: Rocker Switch set at 384, Volume 45 and Column 24.
Low Controls for this assay are made by treating Non Small Cell Lung Cancer cells with 5 ul of staurosporine at 250 uM in 10% DMSO and 1% SDS. [Final concentration in this assay is 25 uM staurosporine in 1% DMSO and 0.1% SDS.]
High Controls for this assay are made by treating Non Small Cell Lung Cancer cells with 5 ul of 10% DMSO. [Final concentration in this assay is 1% DMSO].
The remaining wells of the 384 microplate may be treated with different compounds depending on the study. Important Note: All compounds for testing in this assay should be done at the final concentration of 1% DMSO.
After addition, the cells are placed in cell culture incubator at 37° C. for 48 hours for complete treatment.
After drug treatment, cytotoxicity is measured by Alamar Blue reduction. 5 μL of Alamar Blue is added to the 384 microplates using the Flexdrop.
The cells are incubated for 48 hours at 37° C. to complete the Alamar Blue reduction.
The final step in the assay is to measure the amount of Alamar Blue reduction. […] The Alamar Blue fluorescence is measured at an excitation of 530 nm and emission of 590 nm.
For the NSCLC project, the cell based assay was screened against a small molecule library of approximately 200,000 compounds. The compound library is stored in our automated robotic freezer (Biophile) at −20° C. in 100% DMSO. Compound freeze and thaw cycles are kept to a minimum. Compounds for use are diluted into the appropriate concentration and plated into 384 well microplates using our custom built low volume 384-well head tool (TPS 384, Apricot Designs Inc., CA, USA). This assay was performed on a fully automated linear track robotic platform (CRS F3 Robot System, Thermo Electron Corp., Ontario, Canada) utilizing several integrated peripherals for plate handling, liquid dispensing, and readout detection. First, non-small cell lung cancer cell lines are dispensed into 384 well microplates (Corning #3712 Tissue Culture Treated Plate, Corning, N.Y., USA) with 5 μL of test compounds at 100 uM in 10% DMSO for screening studies or […] in 10% DMSO to 50 nM in 10% DMSO for dose response studies. The microplates are then placed at 37° C. for 48 hours to complete treatment of cells with compounds. Next, 5 ul of alamar blue was added using a liquid dispenser (Flexprop Precision Dispenser, Perkin Elmer, Mass., USA) and incubated for 48 hours at 37° C. The alamar blue prompt fluorescence was measured on Victor V (Victor^3 V, Perkin Elmer, Mass., USA) and output data files were loaded into ORIS (Oncology Research Informatics System, MSKCC, NY, USA), a screening data acquisition and analysis platform.

[2] = tested on: H1975; experiment: [3H]-thymidine incorporation assay, H1975; format: cell-based, human; conditions: H1975, mutant EGFR
Procedure: (§1) FIGS. 41A-41B. SKI-267077 inhibits DNA synthesis. SKI-267077 was used to elucidate the mechanism by which this agent inhibits cell growth.
(§2) [^3H]-thymidine incorporation assay. Cells were seeded in 12-well plates at a density of 100 000 cells/well and treated with inhibitors for 24 hours. H3-thymidine (3 μCi/mL) was then added for 3 hours. Cells were washed twice with PBS, fixed with cold 10% TCA (in PBS) for 30 min then lysed with 0.5% NaOH/0.5% SDS. DNA was scraped from the wells and the amount of H3-thymidine incorporated determined by liquid scintillation counting.

[3] = tested on: H3255; experiment: [3H]-thymidine incorporation assay, H3255; format: cell-based, human; conditions: H3255, mutant EGFR
Procedure: as §1, §2

[4] = tested on: H2030 cells; experiment: Cell cycle analysis (FACS), H2030; format: cell-based, human; conditions: 24 hours
Procedure: FIGS. 2A-2B. SKI-267077 induces cell cycle arrest. H2030 cells were treated with SKI-267077 for 24 h. Cell cycle progression was analyzed by FACS analysis. FIG. 2A: Percent of cells in S-phase. FIG. 2B: percent of cells in G1 phase.
Cell cycle analysis. For cell cycle analysis, cells were plated at a density of 500,000 cells per well in 6-well plates. Attached cells were treated with drugs for 24 h. Cells were then collected, washed with PBS and fixed in 70% ethanol for 1 h. For FACS analysis, fixed cells were washed with cold PBS resuspended in PBS containing 200 μg/mL propidium iodide and 0.1% sodium citrate. Flow cytometry was performed on a Becton-Dickinson FACSCalibur flow cytometer and data the processed using FlowJo software.
SKI-267077 induces cell cycle arrest at the G1 phase. Cell cycle progression in the presence of SKI-267077 was determined by FACS analysis of H2030 cells that were treated for 24 hours.

[5] = tested on: MAPK isoforms ERK1 and ERK2; experiment: Phosphoprotein array, ERK1 and ERK2; format: cell-based; conditions: cells treated for 24 hours; MAPK signaling pathway
Procedure: FIG. 43A-43C. A phosphoprotein array was used to determine which signaling pathways were affected by treatment of cells with SKI-267077. […] A phosphoprotein array (R and D Systems) was used to measure the level of phosphorylation of cellular proteins. Protein phosphorylation was determined according to the manufacturer's instructions.

[6] = tested on: NHBE (normal human bronchiolar epithelial cells); experiment: cells
[7] = Homo sapiens; read-out: Dose Response (uM) H827
[8] = Homo sapiens, NHBE, read-out: IC50(uM) NHBE
[9] = Homo sapiens, read-out: Dose Response (uM) H827

Structure (SMILES): O=c1c(Cl)c(Cl)cnn1-c1cccc(C(F)(F)F)c1 [compound 176729]
- IC50 [1, 7]: 0.17 µM

Structure (SMILES): O=c1c(Cl)c(Cl)cnn1-c1ccc(Cl)cc1Cl [compound 267077]
- DNA synthesis [2]: dose-dependent reduction in DNA synthesis
- DNA synthesis [3]: dose-dependent reduction in DNA synthesis
- percent of cells in the G1 phase [4]: increase in the percent of cells in the induce G1 phase
- percent of cells in the S phase [4]: reduction of the percent of cells in the S phase
- phosphorylation of ERK1 and ERK2 [5]: reduced phosphorylation of the MAPK isoforms ERK1 and ERK2

Structure (SMILES): Cc1cccc(NC(=O)c2ccc([N+](=O)[O-])o2)c1 [compound 71762]
- IC50 ([6]; Homo sapiens, NHBE, read-out: IC50(uM) NHBE, phenylfuran-2-carboxamide SAR summary): 15.8 µM
- IC50 ([6]; read-out: IC50(uM) NHBE, phenylfuran-2-carboxamide SAR summary): 14.8 µM

Structure (SMILES): Cc1ccc(NC(=O)c2ccc([N+](=O)[O-])o2)cc1 [compound 98697]
- IC50 [6, 8]: 29.4 µM

Structure (SMILES): O=c1c(Br)c(Br)cnn1-c1ccccc1 [compound 257015]
- IC50 [1, 7]: 0.17 µM

Structure (SMILES): O=C(Nc1ccc(Cl)cc1)c1ccc([N+](=O)[O-])o1 [compound 98698, 5-nitro-furan-2-carboxylic acid (4-chloro-phenyl)-amide]
- IC50 [6, 8]: 21.4 µM

Structure (SMILES): Cc1cccc(-n2ncc(Cl)c(Cl)c2=O)c1 [compound 104122, 4,5-dichloro-2-m-tolyl-2H-pyridazin-3-one]
- IC50 [1, 9]: 0.09 µM

Structure (SMILES): O=c1c(Cl)c(Cl)cnn1-c1ccccc1 [compound 257014]
- IC50 [1, 9]: 0.24 µM

Other lines, results leading:

- IC50 [1, 7]: 0.5 µM
Structure (SMILES): Cc1cccc(-n2ncc(Cl)c(Cl)c2=O)c1C [compound 257018]

- IC50 [1, 7]: 0.32 µM
Structure (SMILES): Cc1ccc(-n2ncc(Cl)c(Cl)c2=O)cc1C [compound 257019]

- IC50 [1, 7]: 0.3 µM
Structure (SMILES): Cc1cc(C)cc(-n2ncc(Cl)c(Cl)c2=O)c1 [compound 257020]

- IC50 [1, 7]: 0.29 µM
Structure (SMILES): Cc1ccc(-n2ncc(Cl)c(Cl)c2=O)cc1 [compound 257016]
